The values that follow come from US20230083012A1, “DIHYDROPYRIMIDINE DERIVATIVES AND USES THEREOF IN THE TREATMENT OF HBV INFECTION OR OF HBV-INDUCED DISEASES” (priority 2019, published 2023).

Where only a bound is given, the exact number is not on record here.

Data set [1] is described as follows: Cytotoxicity determination in HepG2.2.15 cells (CCK-8 cell viability). Type of data set: cell-based. Particulars: human, 6 days treatment, CCK-8 assay, highest concentration 100 uM. The essentials: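 HepG2.2.15 cells seeded at 5,000 cells/well in 2% FBS medium, exposed 6 days to compounds (8-point 1:3 dilutions from 100 uM, triplicate), refreshed at day 3. Viability read by CCK-8 after 2.5 h at 37° C, absorbance 450 nm with 630 nm reference; CC50 calculated.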
A general note: Formazan colour is commonly taken as a measure of viable cells.

The test system of another data set is HBV. The data set is described as follows: Anti-HBV activity in HepG2.2.15 cells (HBV DNA in culture medium by qPCR). Particulars: Hepatitis B virus, HepG2.2.15, 144 h, HepG2.2.15 cells, 6 days treatment, HBV DNA in culture medium quantified by real-time PCR; read-out: EC50. The data set is classed as cell-based. The procedure, abridged: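 HepG2.2.15 cells in 2% FBS medium at 37 °C were treated with compounds for 6 days, with medium and compound refreshed at day 3; 1:3 dilutions, 8 concentrations in triplicate, top 10 or 1 uM. HBV DNA in culture medium quantified by qPCR to derive EC50; CC50 from parallel plates (top 100 uM).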

In the case of `CCOC(=O)C1=C(CN2CC(F)(F)[C@@H]3C(=O)N(C[C@@H](C)C(=O)O)C[C@@H]32)NC(c2nccs2)=N[C@H]1c1cccc(F)c1C` (single isomer, unassigned) [Compound 181A], the midpoint of cytotoxicity in data set [1], the CC50 at 6 days, lay at 52900 nM. For the same compound, the EC50 in the data set on HBV was determined as 12.3 nM.

Consider `COC(=O)C1=C(CN2CC(F)(F)[C@@H]3CN(C(=O)C(C)(C)C(=O)O)C[C@@H]32)NC(c2nccs2)=N[C@H]1c1cccc(F)c1Cl` (single isomer, unassigned) [Compound 206, 3-((cis)-1-((6-(2-chloro-3-fluorophenyl)-5-(methoxycarbonyl)-2-(thiazol-2-yl)-3,6-dihydropyrimidin-4-yl)methyl)-3,3-difluorohexahydropyrrolo[3,4-b]pyrrol-5(1H)-yl)-2,2-dimethyl-3-oxopropanoic acid], for which, in data set [1], the 50% cytotoxic concentration (CC50) at 6 days is greater than 100000 nM. For the same compound, the half-maximal effective concentration (EC50) in the data set with HBV was found to be 39.3 nM.

The compound `CCOC(=O)C1=C(CN2CC(F)(F)[C@H]3[C@@H]2CN(C(C)=O)N3CCC(C)(C)C(=O)O)NC(c2nccs2)=N[C@@H]1c1ccc(F)c(F)c1C` (single isomer, unassigned) [Compound 80B, 4-((cis)-2-acetyl-4-((6-(3,4-difluoro-2-methylphenyl)-5-(ethoxycarbonyl)-2-(thiazol-2-yl)-3,6-dihydropyrimidin-4-yl)methyl)-6,6-difluorohexahydropyrrolo[3,2-c]pyrazol-1(2H)-yl)-2,2-dimethylbutanoic acid] showed a cytotoxic concentration (CC50) at 6 days in data set [1] of 24100 nM. In addition, in the data set on HBV, the EC50 came to 8 nM.

Regarding `CCOC(=O)C1=C(CN2CC(F)(F)[C@H]3[C@@H]2CCN3C[C@H]2C[C@H](C(=O)O)C2)NC(c2nccs2)=N[C@H]1c1cccc(F)c1C` (single isomer, unassigned) [Compound 143A], the CC50 at 6 days in data set [1] worked out at 19200 nM. The EC50 in the data set with HBV was 1.1 nM.

For the compound `CCOC(=O)C1=C(CN2CC(F)(F)[C@H]3[C@@H]2CCN3CC(C)(C)C(=O)O)NC(c2nccs2)=N[C@@H]1c1ccc(F)nc1C` (single isomer, unassigned) [Compound 159, 3-((cis)-4-((5-(ethoxycarbonyl)-6-(6-fluoro-2-methylpyridin-3-yl)-2-(thiazol-2-yl)-3,6-dihydropyrimidin-4-yl)methyl)-6,6-difluorohexahydropyrrolo[3,2-b]pyrrol-1(2H)-yl)-2,2-dimethylpropanoic acid], in data set [1], the CC50 at 6 days is 75700 nM. Further, the half-maximal effective concentration (EC50) in the data set with HBV turned out to be 0.6 nM.

As to `CCOC(=O)C1=C(CN2CC(F)(F)[C@@H]3C(=O)N(C4(C(=O)O)CC4)C[C@@H]32)NC(c2nccs2)=N[C@H]1c1cccc(F)c1C` (single isomer, unassigned) [Compound 198], the CC50 at 6 days in data set [1] came to 99600 nM. Further, the EC50 with HBV stood at 96 nM.

The compound `CCOC(=O)C1=C(CN2CC(F)(F)[C@@H]3[C@H]2CN(C)N3CCC(C)(C)C(=O)O)NC(c2nccs2)=N[C@@H]1c1ccc(F)c(F)c1C` (single isomer, unassigned) [Compound 93, 4-(4-((6-(3,4-difluoro-2-methylphenyl)-5-(ethoxycarbonyl)-2-(thiazol-2-yl)-3,6-dihydropyrimidin-4-yl)methyl)-6,6-difluoro-2-methylhexahydropyrrolo[3,2-c]pyrazol-1(2H)-yl)-2, ethylbutanoic acid] showed a CC50 at 6 days in data set [1] of 5400 nM. Further, the EC50 in the data set with HBV stood at 12 nM.

For the compound `CCOC(=O)C1=C(CN2CC(F)(F)[C@@H]3CN(S(N)(=O)=O)C[C@@H]32)NC(c2nccs2)=N[C@H]1c1cccc(F)c1C` (single isomer, unassigned) [Compound 33], in data set [1], the CC50 at 6 days is 14600 nM. Further, the concentration for a half-maximal effect (EC50) in the data set on HBV came out at 2.4 nM.

Compound `CCOC(=O)C1=C(CN2CC(F)(F)[C@H]3CN(C[C@H](C)C(=O)O)C[C@H]32)NC(c2nccs2)=N[C@H]1c1cccc(F)c1C` (single isomer, unassigned) [Compound 15F] had a half-maximal cytotoxic concentration (CC50) at 6 days in data set [1] of 39000 nM. Also, the EC50 with HBV stood at 16.1 nM.

As to `COC(=O)C1=C(CN2CC(F)(F)[C@H]3[C@@H]2CCN3C[C@@H](C)C(=O)O)NC(c2nccs2)=N[C@H]1c1ccc(F)cc1Cl` (single isomer, unassigned) [Compound 133A, 3-((cis)-4-((6-(2-Chloro-4-fluorophenyl)-5-(methoxycarbonyl)-2-(thiazol-2-yl)-3,6-dihydropyrimidin-4-yl)methyl)-6,6-difluorohexahydropyrrolo[3,2-b]pyrrol-1(2H)-yl)-2-methylpropanoic acid], in data set [1], the CC50 at 6 days came to 41700 nM. In addition, the EC50 in the data set with HBV was less than 0.5 nM.

In turn, `CCOC(=O)C1=C(CN2CC(F)(F)[C@@H]3CN(C(=O)NS(C)(=O)=O)C[C@@H]32)NC(c2nccs2)=N[C@H]1c1cccc(F)c1C` (single isomer, unassigned) [Compound 31] showed a CC50 at 6 days in data set [1] of 85800 nM. Also, in the data set on HBV, the EC50 was 106 nM.

In the case of `COC(=O)C1=C(CN2CC(F)(F)[C@@H]3[C@H]2CN(C(C)=O)N3CCC(C)(C)C(=O)O)NC(c2nccs2)=N[C@H]1c1cccc(F)c1Cl` (single isomer, unassigned) [Compound 84A], the half-maximal cytotoxic concentration (CC50) at 6 days in data set [1] was greater than 100000 nM. Also, the EC50 with HBV worked out at 52 nM.

In the case of `CCOC(=O)C1=C(CN2CC(F)C3C2CCN3CC(C)(C)C(=O)O)NC(c2nccs2)=N[C@H]1c1cccc(F)c1C` (stereo partly drawn) [Compound 11, 3-(4-(((S)-5-(ethoxycarbonyl)-6-(3-fluoro-2-methylphenyl)-2-(thiazol-2-yl)-3,6-dihydropyrimidin-4-yl)methyl)-6-fluorohexahydropyrrolo[3,2-b]pyrrol-1(2H)-yl)-2,2-dimethylpropanoic acid], the cytotoxic concentration (CC50) at 6 days in data set [1] worked out at 37300 nM. Also, the EC50 in the data set on HBV came out at 70.3 nM.

With `COC(=O)C1=C(CN2CC(F)(F)[C@H]3[C@@H]2CCN3CCC(C)(C)C(=O)O)NC(c2nccs2)=N[C@H]1c1ccc(F)cc1Cl` (single isomer, unassigned) [Compound 127, 4-((cis)-4-((6-(2-Chloro-4-fluorophenyl)-5-(methoxycarbonyl)-2-(thiazol-2-yl)-3,6-dihydropyrimidin-4-yl)methyl)-6,6-difluorohexahydropyrrolo[3,2-b]pyrrol-1(2H)-yl)-2,2-dimethylbutanoic acid], the CC50 at 6 days in data set [1] worked out at 47200 nM. Besides, the EC50 with HBV came to 1.6 nM.

In data set [1], `CCOC(=O)C1=C(CN2CC(F)(F)[C@@H]3CN(S(=O)(=O)[C@H]4C[C@@](C)(C(=O)O)C4)C[C@@H]32)NC(c2nccs2)=N[C@H]1c1cccc(F)c1C` (single isomer, unassigned) [Compound 205B] came in with a cytotoxic concentration (CC50) at 6 days greater than 50000 nM. Also, the concentration giving a half-maximal response (EC50) with HBV was 103 nM.

Regarding `CCOC(=O)C1=C(CN2CC(F)(F)[C@H]3[C@@H]2CCN3C[C@@H](C)C(=O)O)NC(c2nccs2)=N[C@H]1c1cccc(F)c1Cl` (single isomer, unassigned) [Compound 149A], the midpoint of cytotoxicity in data set [1], the CC50 at 6 days, lay at 21800 nM. The EC50 with HBV is less than 0.5 nM.

For `COC(=O)C1=C(CN2CC(F)(F)[C@@H]3[C@H]2CN(C)N3CCC(C)(C)C(=O)O)NC(c2nccs2)=N[C@H]1c1ccc(F)c(F)c1C` (single isomer, unassigned) [Compound 101, 4-((cis)-4-((6-(3,4-Difluoro-2-methylphenyl)-5-(methoxycarbonyl)-2-(thiazol-2-yl)-3,6-dihydropyrimidin-4-yl)methyl)-6,6-difluoro-2-methylhexahydropyrrolo[3,2-c]pyrazol-1(2H)-yl)-2,2-dimethylbutanoic acid], the CC50 at 6 days in data set [1] was greater than 3100 nM. In addition, the EC50 with HBV was determined as 25 nM.

In data set [1], `CCOC(=O)C1=C(CN2CC(F)(F)[C@@H]3CN(C(N)=O)C[C@@H]32)NC(c2nccs2)=N[C@H]1c1cccc(F)c1C` (single isomer, unassigned) [Compound 35] displayed a CC50 at 6 days of 35200 nM. Also, the half-maximal effective concentration (EC50) with HBV came to 13.3 nM.

In general, CC50 refers to the concentration giving 50% cytotoxicity. Higher therefore signals better tolerance by the cells. As usually defined, the EC50 is the concentration giving half of the maximal effect.
